Measurements: patent publication US11986471B2, “Compounds and methods of use” (Tango Therapeutics, Inc., priority 2018, dated 2024)

What was measured:
[1] = system: HAP1 MTAP-intact; assay: SDMA in-cell western assay, HAP1 MTAP-intact cell line; assay type: cell-based; settings: Homo sapiens
Method in brief: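 Symmetric dimethylarginine (SDMA) levels were measured by in-cell western in an isogenic HAP1 pair, one expressing endogenous MTAP and one MTAP-null, and IC50 values were derived for each line. Compounds whose IC50 ratio between the lines is 3-fold or more are classed as MTAP-selective.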

[2] = biological target: T1, PRMT5 (Homo sapiens, UniProt O14744); assay: PRMT5 IC50 assay in the presence of MTA as cofactor; assay type: biochemical; settings: for IC50: PRMT5, MTA as cofactor
T1 construct: purchased Viva (custom protein)
T1 sequence (O14744 whole entry): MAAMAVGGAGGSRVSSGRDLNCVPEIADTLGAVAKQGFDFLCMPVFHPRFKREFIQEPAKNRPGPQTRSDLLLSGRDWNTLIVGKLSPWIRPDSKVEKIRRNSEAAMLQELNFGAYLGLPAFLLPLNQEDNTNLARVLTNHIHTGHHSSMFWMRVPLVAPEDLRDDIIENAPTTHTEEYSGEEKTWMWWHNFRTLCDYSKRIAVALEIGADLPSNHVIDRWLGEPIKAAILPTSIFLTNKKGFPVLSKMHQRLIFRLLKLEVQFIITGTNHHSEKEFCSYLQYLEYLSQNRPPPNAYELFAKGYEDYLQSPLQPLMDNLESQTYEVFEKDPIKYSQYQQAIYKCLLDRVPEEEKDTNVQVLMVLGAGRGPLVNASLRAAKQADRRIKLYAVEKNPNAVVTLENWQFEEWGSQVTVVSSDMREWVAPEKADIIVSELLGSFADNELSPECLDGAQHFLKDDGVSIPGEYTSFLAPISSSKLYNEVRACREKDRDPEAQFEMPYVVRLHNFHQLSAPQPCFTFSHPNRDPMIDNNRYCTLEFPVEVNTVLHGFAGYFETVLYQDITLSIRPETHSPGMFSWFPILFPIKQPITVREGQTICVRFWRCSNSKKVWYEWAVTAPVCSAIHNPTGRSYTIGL
T1 sequence (Q9BQA1 whole entry partner): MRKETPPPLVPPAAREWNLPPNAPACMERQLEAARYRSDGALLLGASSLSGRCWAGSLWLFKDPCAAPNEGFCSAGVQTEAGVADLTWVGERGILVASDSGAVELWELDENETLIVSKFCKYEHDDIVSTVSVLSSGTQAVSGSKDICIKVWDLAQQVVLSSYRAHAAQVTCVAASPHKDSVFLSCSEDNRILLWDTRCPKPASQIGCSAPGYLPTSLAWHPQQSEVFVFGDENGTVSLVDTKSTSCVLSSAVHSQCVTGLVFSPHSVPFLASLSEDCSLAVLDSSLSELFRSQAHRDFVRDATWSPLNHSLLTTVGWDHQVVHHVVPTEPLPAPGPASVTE
Method in brief: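 IC50 against PRMT5 determined with SAM as cofactor, with no cofactor, and with MTA as cofactor. Ki derived as IC50/1.5 for the SAM assay and IC50/13.5 for the MTA assay; SAM Ki to MTA Ki ratio also reported.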

[3] = system: HAP1 MTAP-deleted; assay: SDMA in-cell western assay, HAP1 MTAP-deleted cell line; assay type: cell-based; settings: for IC50: Homo sapiens, HAP1 MTAP-deleted cell line; for MTAP Intact/Deleted Ratio: IC50 ratio HAP1 MTAP-intact / HAP1 MTAP-deleted
Method in brief: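 Symmetric dimethylarginine (SDMA) levels were measured by in-cell western in MTAP-null HAP1 cells, one half of an MTAP-isogenic pair whose partner line expresses endogenous MTAP. Compound potency is reported as IC50.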

[4] = biological target: T1, PRMT5; assay: PRMT5 IC50 assay with no cofactor; assay type: biochemical
Method in brief: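 Three cofactor conditions tested for PRMT5 inhibition: none, MTA and SAM, each giving an IC50. For conversion to Ki, the MTA-condition IC50 is divided by 13.5 and the SAM-condition IC50 by 1.5, and the two Ki values are expressed as a SAM/MTA ratio.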

[5] = biological target: T1, PRMT5; assay: PRMT5 IC50 assay in the presence of SAM as cofactor; assay type: biochemical
Method in brief: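 Three cofactor conditions are run: SAM-bound, MTA-bound and cofactor-free enzyme. IC50 is read from each; for the SAM and MTA arms it is divided by 1.5 and 13.5 respectively to give Ki.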

[6] = ratio between the Ki in the presence of SAM and the Ki in the presence of MTA
[7] = ratio between Ki in the presence of SAM and Ki in the presence of MTA

| Compound | IC50 [1] | IC50 [2] | IC50 [3] | MTAP Intact/Deleted Ratio [3] | IC50 [4] | IC50 [5] | SAM/MTA Ratio [2, 6] | SAM/MTA Ratio [2, 7] | IC50 ([4]; read-out: No Co-factor IC50) |
| --- | --- | --- | --- | --- | --- | --- | --- | --- | --- |
| Cc1ncoc1COc1cc(F)c2c(c1C)CCN(C[C@@H](O)CNC(=O)c1ccnc(NC3CCC3)c1)C2 [Compound 619, 2-(cyclobutylamino)-N-[(2S)-3-[8-fluoro-5-methyl-6-[(4-methyloxazol-5-yl)methoxy]-3,4-dihydro-1H-isoquinolin-2-yl]-2-hydroxy-propyl]pyridine-4-carboxamide] | ≥ 10000 nM | 50 to 500 nM | 1000 to 10000 nM | C* (an IC50 ratio of less than 3 fold between the IC50 in the HAP1 MTAP-intact cell line and the HAP1 MTAP-deleted cell line) | 500 to 5000 nM | 50 to 500 nM |  |  |  |
| CC(=O)N1CCN(c2cc(C(=O)NC[C@H](O)CN3CCc4c(ccc(OCc5cnco5)c4Cl)C3)cc(NC3CCC3)n2)CC1 [Compound 545, (S)-2-(4-acetylpiperazin-1-yl)-N-(3-(5-chloro-6-(oxazol-5-ylmethoxy)-3,4-dihydroisoquinolin-2(1H)-yl)-2-hydroxypropyl)-6-(cyclobutylamino)isonicotinamide] | ≥ 10000 nM | 50 to 500 nM | 1000 to 10000 nM | B* (an IC50 ratio greater than or equal to 3 fold but lower than 10 fold between the IC50 in the HAP1 MTAP-intact cell line and the HAP1 MTAP-deleted cell line) | 500 to 5000 nM | 50 to 500 nM | A (a Ki ratio greater than or equal to 10 fold between the Ki in the presence of SAM and the Ki in the presence of MTA) |  |  |
| O=C(NC[C@H](O)CN1CCc2c(ccc(OCc3cnco3)c2Cl)C1)c1ccnc(NC2CC(F)(F)C2)c1 [Compound 357, (S)—N-(3-(5-chloro-6-(oxazol-5-ylmethoxy)-3,4-dihydroisoquinolin-2(1H)-yl)-2-hydroxypropyl)-2-((3,3-difluorocyclobutyl)amino)isonicotinamide] | ≥ 10000 nM | 50 to 500 nM | ≥ 10000 nM | C* (an IC50 ratio of less than 3 fold between the IC50 in the HAP1 MTAP-intact cell line and the HAP1 MTAP-deleted cell line) |  | 500 to 5000 nM |  | A (a Ki ratio greater than or equal to 10 fold between the Ki in the presence of SAM and the Ki in the presence of MTA) | ≥ 5000 nM |
| Cc1ncoc1COc1ccc2c(c1C)CCN(C[C@@H](O)CNC(=O)c1cc(NC3COC3)nc(N3CCN(C(C)C)CC3)n1)C2 [Compound 444, N-[(2S)-2-hydroxy-3-{5-methyl-6-[(4-methyl-1,3-oxazol-5-yl)methoxy]-1,2,3,4-tetrahydroisoquinolin-2-yl}propyl]-6-[(oxetan-3-yl)amino]-2-[4-(propan-2-yl)piperazin-1-yl]pyrimidine-4-carboxamide] | ≥ 10000 nM | 50 to 500 nM | 1000 to 10000 nM | C* (an IC50 ratio of less than 3 fold between the IC50 in the HAP1 MTAP-intact cell line and the HAP1 MTAP-deleted cell line) | ≥ 5000 nM | 50 to 500 nM | A (a Ki ratio greater than or equal to 10 fold between the Ki in the presence of SAM and the Ki in the presence of MTA) |  |  |
| CC(C)CC(=O)N1CCC(Nc2cc(C(=O)NC[C@H](O)CN3CCc4c(ccc(OCc5cnco5)c4Cl)C3)ccn2)CC1 [Compound 443, (S)—N-(3-(5-chloro-6-(oxazol-5-ylmethoxy)-3N-dihydroisoquinolin-2(1H)-yl)-2-hydroxypropyl)-2-((1-(3-methylbutanoyl)piperidin-4-yl)amino)isonicotinamide] | ≥ 10000 nM | 50 to 500 nM | < 1000 nM | A* (an IC50 ratio greater than or equal to 10 fold between the IC50 in the HAP1 MTAP-intact cell line and the HAP1 MTAP-deleted cell line) | 500 to 5000 nM | 50 to 500 nM | A (a Ki ratio greater than or equal to 10 fold between the Ki in the presence of SAM and the Ki in the presence of MTA) |  |  |
| CC(=O)N1CC(Nc2cc(C(=O)NC[C@H](O)CN3CCc4cc(OCc5ocnc5C)ccc4C3)nc(C(C)(C)C)n2)C1 [Compound 564, (S)-6-((1-acetylazetidin-3-yl)amino)-2-(tert-butyl)-N-(2-hydroxy-3-(6-((4-methyloxazol-5-yl)methoxy)-3,4-dihydroisoquinolin-2(1H)-yl)propyl)pyrimidine-4-carboxamide] | 1000 to 10000 nM | 50 to 500 nM | < 1000 nM | B* (an IC50 ratio greater than or equal to 3 fold but lower than 10 fold between the IC50 in the HAP1 MTAP-intact cell line and the HAP1 MTAP-deleted cell line) | 500 to 5000 nM | 50 to 500 nM | A (a Ki ratio greater than or equal to 10 fold between the Ki in the presence of SAM and the Ki in the presence of MTA) |  |  |
| Cc1ncoc1COc1ccc2c(c1C)CCN(C[C@@H](O)CNC(=O)c1cccc(NC3COC3)c1)C2 [Compound 375, N-[(2S)-2-hydroxy-3-{5-methyl-6-[(4-methyl-1,3-oxazol-5-yl)methoxy]-1,2,3,4-tetrahydroisoquinolin-2-yl}propyl]-3-[(oxetan-3-yl)amino]benzamide] | ≥ 10000 nM | 500 to 5000 nM | ≥ 10000 nM | C* (an IC50 ratio of less than 3 fold between the IC50 in the HAP1 MTAP-intact cell line and the HAP1 MTAP-deleted cell line) |  | 500 to 5000 nM |  | A (a Ki ratio greater than or equal to 10 fold between the Ki in the presence of SAM and the Ki in the presence of MTA) | ≥ 5000 nM |
| Cc1c(OCc2cnn[nH]2)ccc2c1CCN(C[C@@H](O)CNC(=O)c1ccnc(NC3CCC3)c1)C2 [Compound 273, (S)—N-(3-(6-((1H-1,2,3-triazol-5-yl)methoxy)-5-methyl-3,4-dihydroisoquinolin-2(1H)-yl)-2-hydroxypropyl)-2-(cyclobutylamino)isonicotinamide] | ≥ 10000 nM | 500 to 5000 nM | 1000 to 10000 nM | C* (an IC50 ratio of less than 3 fold between the IC50 in the HAP1 MTAP-intact cell line and the HAP1 MTAP-deleted cell line) |  | 500 to 5000 nM |  |  | ≥ 5000 nM |
| CC(C)(C)C(=O)N1CCC(Nc2cc(C(=O)NC[C@H](O)CN3CCc4cc(OCc5cnco5)ccc4C3)ccn2)CC1 [Compound 449, 2-[[1-(2,2-dimethylpropanoyl)-4-piperidyl]amino]-N-[(2S)-2-hydroxy-3-[6-(oxazol-5-ylmethoxy)-3,4-dihydro-1H-isoquinolin-2-yl]propyl]pyridine-4-carboxamide] | 1000 to 10000 nM | 50 to 500 nM | < 1000 nM | C* (an IC50 ratio of less than 3 fold between the IC50 in the HAP1 MTAP-intact cell line and the HAP1 MTAP-deleted cell line) | 500 to 5000 nM | 50 to 500 nM | A (a Ki ratio greater than or equal to 10 fold between the Ki in the presence of SAM and the Ki in the presence of MTA) |  |  |
| COc1cc(C(=O)NC[C@H](O)CN2CCc3cc(OCc4ocnc4C)ccc3C2)cc(NC2CCN(C(C)=O)CC2)n1 [Compound 599, (S)-2-((1-acetylpiperidin-4-yl)amino)-N-(2-hydroxy-3-(6-((4-methyloxazol-5-yl)methoxy)-3,4-dihydroisoquinolin-2(1H)-yl)propyl)-6-methoxyisonicotinamide] | 1000 to 10000 nM | 50 to 500 nM | < 1000 nM | A* (an IC50 ratio greater than or equal to 10 fold between the IC50 in the HAP1 MTAP-intact cell line and the HAP1 MTAP-deleted cell line) | 500 to 5000 nM | 50 to 500 nM | A (a Ki ratio greater than or equal to 10 fold between the Ki in the presence of SAM and the Ki in the presence of MTA) |  |  |
